# In US7265131B2, “Isoquinolinone derivatives and their use as therapeutic agents” (Exelixis, Inc., priority 2002, dated 2007):
# Biological target: T1, LXR α (Homo sapiens, UniProt Q13133)
# T1 construct: Co-transfection expression plasmids, comprising full-length LXR α (pCMX-hLXR α); expressed in transfected cells; host or cells: CV-1 African Green Monkey kidney cells, transient transfection
# T1 sequence (Q13133 1-447): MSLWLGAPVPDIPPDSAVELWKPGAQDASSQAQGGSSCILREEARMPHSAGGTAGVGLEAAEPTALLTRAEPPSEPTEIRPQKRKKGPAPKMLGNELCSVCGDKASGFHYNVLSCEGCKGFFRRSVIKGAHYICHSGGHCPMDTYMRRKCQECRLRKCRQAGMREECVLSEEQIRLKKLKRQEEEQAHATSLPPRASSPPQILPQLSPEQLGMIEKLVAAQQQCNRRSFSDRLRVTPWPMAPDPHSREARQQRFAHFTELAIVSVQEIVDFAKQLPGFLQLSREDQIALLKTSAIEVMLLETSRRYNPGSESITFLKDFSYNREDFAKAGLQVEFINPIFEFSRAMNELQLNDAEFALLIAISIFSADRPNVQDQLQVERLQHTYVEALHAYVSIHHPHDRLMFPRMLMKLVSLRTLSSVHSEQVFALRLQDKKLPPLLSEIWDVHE
# T1 sequence (P19793 1-462 partner): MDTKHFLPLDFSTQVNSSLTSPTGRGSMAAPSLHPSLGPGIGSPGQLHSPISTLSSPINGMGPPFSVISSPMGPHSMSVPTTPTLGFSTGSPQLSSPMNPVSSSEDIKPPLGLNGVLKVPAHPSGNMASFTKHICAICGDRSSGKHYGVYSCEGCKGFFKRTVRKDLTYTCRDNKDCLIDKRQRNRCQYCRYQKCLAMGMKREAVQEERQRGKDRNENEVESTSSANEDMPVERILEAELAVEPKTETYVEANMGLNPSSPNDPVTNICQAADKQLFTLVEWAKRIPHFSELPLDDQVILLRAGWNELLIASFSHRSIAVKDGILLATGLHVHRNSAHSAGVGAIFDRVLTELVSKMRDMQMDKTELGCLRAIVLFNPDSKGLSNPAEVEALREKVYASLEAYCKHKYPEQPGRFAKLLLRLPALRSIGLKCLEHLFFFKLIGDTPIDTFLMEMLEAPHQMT
# Assay: LXR/LXRE co-transfection assay (luciferase reporter, CV-1 cells)
# Assay type: cell-based
# Conditions: for Emax: CV-1, average percent efficacy, relative to control N-(3-((4-fluorophenyl)-(naphthalene-2-sulfonyl)amino)propyl)-2,2-dimethylpropionamide, read-out: % Eff(a); for EC50: average EC50 for agonism, cotransfection assay, CV-1 cells
# Source text: To measure the ability of compounds to activate or inhibit the transcriptional activity of LXR in a cell based assay, the co-transfection assay was used. It has been shown that LXR functions as a heterodimer with RXR. For the co-transfection assay, expression plasmids for LXR and RXR are introduced via transient transfection into mammalian cells along with a luciferase reporter plasmid that contains one copy of a DNA sequence that is bound by LXR-RXR heterodimers (LXRE; Willy, P. et al. 1995). Treatment of transfected cells with an LXR agonist increases the transcriptional activity of LXR, which is measured by an increase in luciferase activity.
# 1. CV-1 African Green Monkey Kidney Cells
# 2. Co-transfection expression plasmids, comprising full-length LXR α (pCMX-hLXR α), LXR β (pCMX-hLXR β), or RXR α (pCMX-RXR), reporter plasmid (LXREx1-Tk-Luciferase), and control (pCMX-Galactosidase expression vector) (Willey et al. Genes & Development 9 1033-1045 (1995)).
# CV-1 cells were prepared 24 hours prior to the experiment by plating them into T-175 flasks or 500 cm^2 dishes in order to achieve 70-80% confluency on the day of the transfection. The number of cells to be transfected was determined by the number of plates to be screened. Each 384 well plate requires 1.92×10^6 cells or 5000 cells per well. DNA Transfection Reagent was prepared by mixing the required plasmid DNAs with a cationic lipid transfection reagent FuGENE6 (Roche) by following the instructions provided with the reagents. Optimal DNA amounts were determined empirically per cell line and size of vessel to be transfected. 10-12 mL of media was added to the DNA Transfection Reagent and this mixture was added to the cells after aspirating media from the T175 cm^2 flask. Cells were then incubated at least 5 hours at 37° C. to prepare screening cells.
# Luciferase assay reagent was prepared by combining before use (per 10 mL):
# Assay plates were prepared by dispensing 5 μL of compound per well of a 384 well plate to achieve final compound concentration of 10 μM and no more than 1% DMSO. Media was removed from the screening cells, the cells trypsinized, harvested cells by centrifugation, counted, and plated at a density of approximately 5000 cells per well in the 384 well assay plate prepared above in a volume of about 45 μL. Assay plates containing both compounds and screening cells (50 μL in total volume) were incubated for 20 hours at 37° C.
# After incubation with compounds, media was removed from the cells and lysis buffer (30 μuL/well) added. After 30 minutes at ambient temperature, luciferase assay buffer (30 μL/well) was added and the assay plates read on a luminometer (PE Biosystems Northstar reader with on-board injectors, or equivalent). Plates were read immediately after addition of luciferase assay buffer.
# The LXR/LXRE co-transfection assay can be used to establish the EC50/IC50 values for potency and percent activity or inhibition for efficacy. Efficacy defines the activity of a compound relative to a high control ((N-(3-((4-fluorophenyl)-(naphthalene-2-sulfonyl)amino)propyl)-2,2-dimethylpropionamide)) or a low control (DMSO/vehicle). The dose response curves are generated from an 8 point curve with concentrations differing by ½ LOG units. Each point represents the average of 4 wells of data from a 384 well plate.
# The data from this assay is fitted to the following equation, from the EC50 value may be solved: Y=Bottom+(Top-Bottom)/(1+10^((logEC50-X*HillSlope))
# The EC50/IC50 is therefore defined as the concentration at which an agonist or antagonist elicits a response that is half way between the Top (maximum) and Bottom (baseline) values. The EC50/IC50 values represented are the averages of at least 3 independent experiments. […]
Structure (SMILES),Emax [%],EC50 [nM]
"Cc1ccc(Cn2c(C#CC(C)(C)O)cc3ccccc3c2=O)c(C)c1 [2-(2,4-dimethylbenzyl)-3-(3-hydroxy-3-methylbut-1-ynyl)-2H-isoquinolin-1-one]",40 to 90,> 500
"Cc1cccc(-c2cc3ccccc3c(=O)n2Cc2ccc(C)cc2C)c1 [2-(2,4-dimethylbenzyl)-3-m-tolyl-2H-isoquinolin-1-one]",40 to 90,150 to 500
Cc1cccc(-c2cc3ccccc3c(=O)n2Cc2ccccc2)c1 [2-benzyl-3-m-tolyl-2H-isoquinolin-1-one],< 40,> 500
"Cc1ccc(Cn2c(-c3ccsc3)cc3ccccc3c2=O)c(C)c1 [2-(2,4-dimethylbenzyl)-3-thiophen-3-yl-2H-isoquinolin-1-one]",40 to 90,> 500
O=c1c2c(Cl)cccc2cc(-c2ccc(Oc3ccccc3)cc2)n1CC1CCCCC1 [8-chloro-2-cyclohexylmethyl-3-(4-phenoxyphenyl)-2H-isoquinolin-1-one],40 to 90,10 to 150
Cc1ccc(Cn2c(-c3ccc(Oc4ccccc4)cc3)cc3cccc(C)c3c2=O)cc1 [8-methyl-2-(4-methylbenzyl)-3-(4-phenoxyphenyl)-2H-isoquinolin-1-one],40 to 90,10 to 150

# More lines, now with the values ahead:
Emax [%],EC50 [nM],Structure (SMILES)
> 90,< 10,"Nc1ccc(-c2coc(-c3cc4cccc(Cl)c4c(=O)n3Cc3ccc(F)cc3F)c2)cc1C(F)(F)F [3-[4-(4-amino-3-trifluoromethylphenyl)furan-2-yl]-8-chloro-2-(2,4-difluorobenzyl)-2H-isoquinolin-1-one]"
> 90,< 10,"O=c1c2c(Cl)cccc2cc(-c2ccc(Oc3cnccn3)cc2)n1Cc1ccc(F)cc1F [8-chloro-2-(2,4-difluorobenzyl)-3-[4-(pyrazin-2-yloxy)phenyl]-2H-isoquinolin-1-one]"
40 to 90,10 to 150,"CCOc1ccc(-c2csc(-c3cc4cccc(Cl)c4c(=O)n3Cc3ccc(F)cc3F)c2)cc1Cl [8-chloro-3-[4-(3-chloro-4-ethoxyphenyl)thiophen-2-yl]-2-(2,4-difluorobenzyl)-2H-isoquinolin-1-one]"
> 90,10 to 150,"Cc1ccc(Cn2c(-c3ccc(Oc4ccccc4)cc3)cc3ccccc3c2=O)c(C)c1 [2-(2,4-dimethylbenzyl)-3-(4-phenoxyphenyl)-2H-isoquinolin-1-one]"
40 to 90,10 to 150,"O=c1c2c(Cl)cccc2cc(-c2cc(-c3cc(C(F)(F)F)cc(C(F)(F)F)c3)co2)n1Cc1ccc(F)cc1F [3-[4-(3,5-bis-trifluoromethylphenyl)furan-2-yl]-8-chloro-2-(2,4-difluorobenzyl)-2H-isoquinolin-1-one]"
> 90,10 to 150,"O=c1c2c(Cl)cccc2cc(-c2ccc(Oc3ccccc3)cc2)n1Cc1ccc(F)cc1F [8-chloro-2-(2,4-difluorobenzyl)-3-(4-phenoxyphenyl)-2H-isoquinolin-1-one]"
40 to 90,10 to 150,"CS(=O)(=O)c1ccc(-c2ccc(-c3cc4cccc(Cl)c4c(=O)n3Cc3ccc(F)cc3F)s2)cc1 [8-chloro-2-(2,4-difluorobenzyl)-3-[5-(4-methanesulfonylphenyl)thiophen-2-yl]-2H-isoquinolin-1-one]"
40 to 90,10 to 150,O=c1c2c(Cl)cccc2cc(-c2ccc(Oc3ccccc3)cc2)n1Cc1cccs1 [8-chloro-3-(4-phenoxyphenyl)-2-thiophen-2-ylmethyl-2H-isoquinolin-1-one]
